The results in this text go back to the supplement of paper PMC3937590.

Holding throughout (assay): -log10 GI50 (growth inhibition 50%) (-log10(M)); higher = more potent growth inhibition
In one experiment the test system is 21NT. In a few lines: (§1)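 Breast cancer cell lines were exposed to each compound for 72 hours at nine doses in 1:5 serial dilution, in triplicate, with a luminescence read-out against a time-zero plate. A Gompertz curve was fitted to the dose-response data by nonlinear least squares. The value is minus log10 of GI50, the molar concentration giving the set level of growth inhibition. Values equal to the top dose carry a < qualifier.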

Another experiment concerns HCC70. In a few lines:
as §1

The subject of another experiment is MCF12A. Put shortly: as §1
A further experiment has as its system HCC1187. Put shortly: as §1
Another experiment has as its system 21MT1. In a few lines: as §1
Another experiment deals with HS578T. In a few lines:
as §1

For another experiment, the system named is HCC1143. Put shortly: as §1
For another experiment, the system named is 184B5. In a few lines:
as §1

The subject of a further experiment is MDAMB453. Put shortly: as §1
The subject of another experiment is HCC1419. In a few lines:
as §1

The next experiment has as its system HCC38. Put shortly:
as §1

A further experiment relates to HBL100. Put shortly:
as §1

The next experiment relates to ZR7530. In a few lines: as §1
Another experiment deals with S1. Put shortly:
as §1

The test system of the next experiment is UACC893. Put shortly:
as §1

The next experiment has as its system MDAMB436. In a few lines: as §1
In another experiment the test system is SUM102PT. In a few lines:
as §1

The next experiment deals with HCC202. Put shortly: as §1
Another experiment relates to MDAMB468. In a few lines:
as §1

In a further experiment the test system is T4. In a few lines: as §1

With `CC(=O)NCC(=O)N1[C@@H]2CC[C@H]1c1ccc(Nc3ncc(C(F)(F)F)c(NC4CCC4)n3)cc12`, the “-log10 GI50” value was 5.54 with 21NT; 5.38 in the experiment with HCC70; 5.59 with MCF12A; 7.1 in the experiment on HCC1187; 5.78 in the experiment on 21MT1; 6.05 in the experiment on HS578T. In addition, the “-log10 GI50” value in the experiment on HCC1143 amounted to 5.82; with 184B5, 5.48; in the experiment with MDAMB453 it was 5.62; with HCC1419 it was 5.19; in the experiment with HCC38, 6.2.

For `CCC[C@H](N[C@H]1CCc2cc(F)cc(F)c2C1)C(=O)Nc1cn(C(C)(C)CNCC(C)(C)C)cn1`, the “-log10 GI50” value in the experiment on 21NT is under 4.18; in the experiment with HCC70, 5.63; in the experiment on MCF12A, under 4.18; in the experiment with HCC1187, 5.48; in the experiment with 21MT1, 4.38; in the experiment with HS578T it was 4.51. The “-log10 GI50” value is under 4.18 in the experiment on HCC1143; 4.86 in the experiment on 184B5; 4.59 in the experiment with MDAMB453; under 4.18 with HCC1419; under 4.18 in the experiment with HCC38.

Take `COc1ccc(-c2cc3c(C)nc(N)nc3n([C@H]3CC[C@H](OCCO)CC3)c2=O)cn1`: the “-log10 GI50” value amounted to 5.84 in the experiment with 21NT; 7.31 in the experiment on HCC70; 6.39 with MCF12A; 8.01 in the experiment with HCC1187; 6.54 in the experiment with 21MT1; 5.26 in the experiment with HS578T. Besides, the “-log10 GI50” value in the experiment with HCC1143 came out at 6.86; with 184B5, 6.65; with MDAMB453 it was 6.88; in the experiment with HCC1419, 7.58; in the experiment on HCC38, 6.51.

As to `Cn1ncc(Cl)c1-c1cc(C(=O)N[C@H](CN)Cc2ccc(F)c(F)c2)oc1Cl`, the “-log10 GI50” value is 5.35 in the experiment with 21NT; 8.68 in the experiment with HCC70; 5.57 in the experiment with MCF12A; 8.02 with HCC1187; 5.35 in the experiment on 21MT1; 5.58 in the experiment on HS578T. Besides, the “-log10 GI50” value was 5.41 in the experiment with HCC1143, 7.2 in the experiment on MDAMB453, 7.72 in the experiment on HCC1419 and 5.99 in the experiment with HCC38.

For the compound `N.N.[Cl][Pt][Cl]` [Cisplatin], the “-log10 GI50” value was 5.05 in the experiment on HBL100; 5.8 with HCC70; 4.18 in the experiment on MCF12A; 5.58 in the experiment on ZR7530; 5.45 in the experiment with S1; 3.76 in the experiment with UACC893. The “-log10 GI50” value with HCC1187 is 5.67; in the experiment on HS578T it was 5.16; in the experiment with HCC1143, 5.04; in the experiment with 184B5, under 3.3; with MDAMB453 it was 5.16; in the experiment on MDAMB436, 5. Also, the “-log10 GI50” value is under 3.3 in the experiment with SUM102PT; 6.06 with HCC202; 5.27 with MDAMB468; 4.91 in the experiment on HCC1419; 5.78 in the experiment on HCC38; 5.02 with T4.

Consider `CCN(CC)C(=S)SSC(=S)N(CC)CC` [Disulfiram], for which the “-log10 GI50” value in the experiment on 21NT was 4.72; with HCC70, under 4.18; with MCF12A it was 4.97; in the experiment on ZR7530, 7.05; with HCC1187 it was 6.49; in the experiment with 21MT1, under 4.18. Also, the “-log10 GI50” value in the experiment with HS578T is 5.44; in the experiment with HCC1143, 6.95; in the experiment on 184B5, 4.93; in the experiment on MDAMB453, 6.84; with HCC202, 4.84; in the experiment on HCC1419 it was under 4.18. Further, the “-log10 GI50” value with HCC38 was 5.96.

In the case of `COC1=C2C[C@@H](C)C[C@H](OC)[C@H](O)[C@@H](C)/C=C(\C)[C@H](OC(N)=O)[C@@H](OC)/C=C\C=C(/C)C(=O)NC(=CC1=O)C2=O` [Geldanamycin], the “-log10 GI50” value in the experiment with HBL100 came out at 7.6; in the experiment on HCC70, 7.09; in the experiment on MCF12A it was 7.73; in the experiment on ZR7530, 8.15; in the experiment with S1, 8.82; in the experiment with UACC893 it was 8.14. In addition, the “-log10 GI50” value came out at 7.8 in the experiment with HCC1187; 7.28 with HS578T; 7.1 with HCC1143; 8.01 in the experiment with 184B5; 7.69 with MDAMB453; 7.15 in the experiment with MDAMB436. Besides, the “-log10 GI50” value in the experiment on SUM102PT came to 8.48; with HCC202, 8.4; with MDAMB468, 7.74; in the experiment on HCC1419, 7.49; in the experiment with HCC38, 7.56; with T4, 8.22.

Turning to `COC(=O)Nc1nc2cc(C(=O)c3ccccc3)ccc2[nH]1` [Mebendazole], the “-log10 GI50” value in the experiment with 21NT is 6.08; in the experiment on HCC70 it was 6.86; in the experiment with MCF12A, 5.74; in the experiment with ZR7530 it was 6.35; in the experiment with HCC1187, 5.4; with 21MT1 it was 4.74. Besides, the “-log10 GI50” value was 6.46 in the experiment with HS578T; 6.01 in the experiment on HCC1143; under 4.18 in the experiment with 184B5; 6.75 with MDAMB453; 6.68 in the experiment on HCC202; 4.72 with HCC1419. Further, the “-log10 GI50” value with HCC38 was 6.48.

On to `Cc1c(O)cccc1C(=O)N[C@@H](CSc1ccccc1)[C@H](O)CN1C[C@H]2CCCC[C@H]2C[C@H]1C(=O)NC(C)(C)C` [Nelfinavir], for which the “-log10 GI50” value with 21NT is 4.57; in the experiment with HCC70, 4.75; with MCF12A it was 4.64; in the experiment on ZR7530, 5.74; with HCC1187, 4.85; in the experiment with 21MT1, 4.87. Further, the “-log10 GI50” value was 5.07 in the experiment on HS578T; 5.13 with HCC1143; 5.33 in the experiment on 184B5; 5.2 in the experiment with MDAMB453; 5.34 in the experiment with HCC202; 5.66 in the experiment with HCC1419. Further, the “-log10 GI50” value in the experiment with HCC38 is 4.78.
